{"source": "patent US5475028A", "about": "(Zaidan Hojin Seisan Kaihatsu Kagaku Kenkyusho, priority 1992, dated 1995)", "key": {"[1]": {"test_system": "Liver disorder (hepatopathy) in mice", "assay": "Anti-hepatitis test: liver disorder (hepatopathy) in mice, carbon tetrachloride", "type": "in vivo, dyy-strain male mice", "settings": "carbon tetrachloride i.p., test substance 1.0 mg/ml i.p. 3 h later, blood at 24 h, Table 1, * p < 0.05", "experimental": "(1) Liver disorder (hepatopathy) in mice A group of 8 dyy-strain male mice (weighing 23 to 25 g), kept fasting from the previous day was treated by intraperitoneal injection of a 25% solution of carbon tetrachloride in olive oil at a dose of […] and thereafter allowed free access to food. Three hours after the administration of carbon tetrachloride, the mice were given a 1.0 mg/ml concentrated suspension of the test substance, as prepared in conjunction with powdered gum arabic, by intra-peritoneal injection at a dose of 0.1 ml/body weight. Twenty four hours after the administration of carbon tetrachloride, blood samples were drawn from the mice under anesthesia with ether through the abdominal descending aorta."}, "[2]": {"test_system": "Isolated liver cells of rats", "assay": "Anti-hepatitis test: disorder of the isolated liver cells, carbon tetrachloride", "type": "cell-based", "settings": "isolated rat liver cells, carbon tetrachloride vapor; test substance 0.1 mg/ml solution, 1 ml added to 2 ml; supernatant; Table 2; n = 8; * p < 0.05", "experimental": "(2) Disorder of the isolated liver cells a. Carbon tetrachloride Isolated liver cells of rats were prepared by means of […] collagenase irrigation method, whereby a liver cell suspension was prepared to a concentration of 6×10^8 liver cells/mi. Into 2 ml of the suspension in an Erlenmeyer flask of a 10 ml capacity was put a test tube of about 0.5 capacity containing carbon tetrachloride to saturate the reaction system with carbon tetrachloride vapor, and after the flask was tightly stoppered, preincubation was carried out at 37° C. for 5 min. One ml of a test substance solution prepared at a concentration of 0.1 mg/ml Hunk's solution was added to the suspension of liver cells, while 1 ml of Hunk's solution was added to the control."}, "[3]": {"test_system": "Isolated liver cells of rats", "assay": "Anti-hepatitis test: disorder of the isolated liver cells, antibody against rat liver cell membranes", "type": "cell-based", "settings": "antiserum against rat liver cell membranes, test substance 0.1 mg/ml solution, 1 ml added to 2 ml, supernatant, Table 3, n = 8, * p < 0.05", "experimental": "(2) Disorder of the isolated liver cells\nb. Antibody against rat liver cell membranes\nIsolated liver cells of rats were prepared by means of Segren's collagenase irrigation method, whereby a liver cell suspension was prepared at a concentration of 6×10^8 liver cells/mi. An Erlenmeyer flask of a 10 ml capacity in which 2 ml of the suspension had been placed was saturated with 95% oxygen, and after the flask was tightly stoppered, preincubation was carried out at 37° C. for 5 min. One ml of a test substance solution prepared at a concentration of 0.1 mg/ml Hunk's solution was added to the liver cell suspension, while 1 ml of the Hunk's solution was added to the control, followed by incubation for another 5 min, and antiserum against rat liver cell membranes (a 50-fold diluted serum) was added. A specifically determined volume of the reaction solution was pipetted out 0 and 30 min after the initiation of reaction, respectively, and immediately centrifuged under 500 g for 30 seconds, and the ALT, AST and LDH as leached out into the supernatant liquid were determined for activity by the Lippie method."}, "[4]": {"test_system": "Stomach injury with hydrochloric acid/ethanol", "assay": "Anti-ulcer test: stomach injury with hydrochloric acid/ethanol", "type": "in vivo, male rats of KBL Wistar strain", "settings": "rats; for Suppression rate: 30 min before hydrochloric acid/ethanol, ulcer length", "experimental": "(1) Stomach injury with hydrochloric acid/ethanol:\nRats weighing 193 to 228 g were fasted with free access to water for 24 hours before being used in the experiment. The rats were divided into groups each consisting of 10 heads in such a way as their mean body weights were nearly uniform, treated through oral administration of hydrochloric acid/ethanol (0.15 mole hydrochloric acid solution in 80% ethanol) at a dose of 5 ml/kg body weight and sacrificed through cervical vertebrae dislocation 1 hour after administration. The stomachs were removed and treated with formalin, and individual ulcers formed in the glandula portion of the stomach were measured in length (mm), with the measured ulcer lengths being summed for each rat. The test substance was suspended in a 0.5% aqueous solution of sodium carboxymethylcellulose, and the suspension was given to the test group orally at a dose of 10 ml/kg body weight 30 min before administration of hydrochloric acid/ethanol, whereas the vehicle alone was applied to the control group."}, "[5]": {"test_system": "Stomach injury through water-immersion constraint stress", "assay": "Anti-ulcer test: stomach injury through water-immersion constraint stress", "type": "in vivo, male rats of KBL Wistar strain", "settings": "rats; for Suppression rate: 30 min before water-soaking constraint, 7 h, ulcer length, * p < 0.05", "experimental": "(2) Stomach injury through water-immersion constraint stress\nRats weighing 183 to 235 g were fasted with free access to water for 24 hours before being used in the experiment. The rats were divided into groups each consisting of 10 heads in such a way as their mean body weights were nearly uniform, stress-loaded by soaking the animals as placed in a stress cage of Univ. of Tokyo type in a water tank at 23° C. up to the xiphoid and sacrificed through cervical vertebrae dislocation 7 hours later. The stomachs were removed and treated with formalin, and individual ulcers formed in the glandula portion of the stomach were measured in length (mm), with the measured ulcer lengths being summed for each rat. The test substance was suspended in a 0.5% aqueous solution of sodium carboxymethylcellulose, and the suspension was given to the test group orally at a dose of 10 ml/kg body weight 30 min before the water-soaking constraint, whereas the vehicle alone was applied to the control group."}, "mice": {"test_system": "mice", "assay": "Acute toxicity test", "type": "in vivo, Male, SLC:ICR (SPE) mice", "settings": "oral", "experimental": "Male, SLC:ICR (SPE) mice weighing 20 g, divided into groups each consisting of 5 heads, were treated by oral administration of the test compound suspended in gum arabic at doses of 1,000 mg/kg, 1,500 mg/kg and 2,500 mg/kg test compound, followed by observation for any abnormalities."}, "[6]": {"assay": "Overall anti-hepatitis, liver-function improving and anti-ulcer activities (summary of tests)"}}}
{"molecule": "N[C@@H](CCC(=O)N[C@@H](CS)C(=O)NCC(=O)O)C(=O)O", "note": "[Glutathione]", "values": [{"measurement": "ALT, mean ± S.D.", "setting": "[1]", "value": "19423.1 ± 1042.3", "unit": "IU"}, {"measurement": "AST, mean ± S.D.", "setting": "[1]", "value": "9643.6 ± 3874.3", "unit": "IU"}, {"measurement": "LDH, mean ± S.D.", "setting": "[1]", "value": "32392 ± 7906", "unit": "IU"}, {"measurement": "ALT, mean ± S.D.", "setting": "[2]", "value": "1176.1 ± 123.7", "unit": "IU"}, {"measurement": "AST, mean ± S.D.", "setting": "[2]", "value": "321.7 ± 94.4", "unit": "IU"}, {"measurement": "ALT, mean ± S.D.", "setting": "[3]", "value": "2257.8 ± 581.6", "unit": "IU"}, {"measurement": "AST, mean ± S.D.", "setting": "[3]", "value": "1759.4 ± 394.3", "unit": "IU"}, {"measurement": "LDH, mean ± S.D.", "setting": "[3]", "value": "2541.1 ± 563.4", "unit": "IU"}]}
{"molecule": "Zinc-[bis(2-aminoethanesulfonic acid).bis(sodium 2-aminoethanesulfonate)] [FTZ]", "values": [{"measurement": "ALT, mean ± S.D.", "setting": "[1]", "value": "4265.7 ± 1347.6", "unit": "IU"}, {"measurement": "AST, mean ± S.D.", "setting": "[1]", "value": "3215.8 ± 967.7", "unit": "IU"}, {"measurement": "LDH, mean ± S.D.", "setting": "[1]", "value": "15865 ± 5300.8", "unit": "IU"}, {"measurement": "ALT, mean ± S.D.", "setting": "[2]", "value": "1107.1 ± 168.8", "unit": "IU"}, {"measurement": "AST, mean ± S.D.", "setting": "[2]", "value": "345.7 ± 72.8", "unit": "IU"}, {"measurement": "ALT, mean ± S.D.", "setting": "[3]", "value": "1429.5 ± 327.8", "unit": "IU"}, {"measurement": "AST, mean ± S.D.", "setting": "[3]", "value": "1025.8 ± 268.4", "unit": "IU"}, {"measurement": "LDH, mean ± S.D.", "setting": "[3]", "value": "1875.3 ± 437.1", "unit": "IU"}, {"measurement": "Suppression rate", "setting": "[4]; 50 mg/kg oral", "value": 32.1, "unit": "%"}, {"measurement": "Suppression rate", "setting": "[4]; 100 mg/kg oral, * p < 0.01", "value": 53.5, "unit": "%"}, {"measurement": "Suppression rate", "setting": "[4]; 200 mg/kg oral, * p < 0.01", "value": 74.9, "unit": "%"}, {"measurement": "UD50", "setting": "[4]; oral, hydrochloric acid/ethanol, 95% C.L. 83.4~94.3, 60 min", "value": 88.7, "unit": "mg/kg"}, {"measurement": "Suppression rate", "setting": "[5]; 50 mg/kg oral", "value": 26.4, "unit": "%"}, {"measurement": "Suppression rate", "setting": "[5]; 100 mg/kg oral", "value": 56.1, "unit": "%"}, {"measurement": "Suppression rate", "setting": "[5]; 200 mg/kg oral", "value": 64.5, "unit": "%"}, {"measurement": "UD50", "setting": "[5]; oral, water-immersion constraint stress, 95% C.L. 97.9~113, 420 min", "value": 105, "unit": "mg/kg"}, {"measurement": "LD50", "setting": "mice", "value": "> 2,500 mg/kg"}, {"measurement": "deaths", "setting": "mice; doses up to 2,500 mg/kg", "value": "did not cause any animal to die"}, {"measurement": "anti-hepatitis, liver-function improving and anti-ulcer activities", "setting": "[6]", "value": "exhibits anti-hepatitis, liver-function improving and anti-ulcer activities"}, {"measurement": "suppression against increases in activities of ALT, AST and LDH", "setting": "[6]; Tables 1 to 3, as compared with the control compounds currently in use", "value": "significantly enhanced suppression"}]}
{"molecule": "CC(S)C(=O)NCC(=O)O", "note": "(centres unmarked) [Thiopronine]", "values": [{"measurement": "ALT, mean ± S.D.", "setting": "[1]", "value": "4941.2 ± 1537.7", "unit": "IU"}, {"measurement": "AST, mean ± S.D.", "setting": "[1]", "value": "4884.5 ± 1097.5", "unit": "IU"}, {"measurement": "LDH, mean ± S.D.", "setting": "[1]", "value": "26789 ± 9753", "unit": "IU"}, {"measurement": "ALT, mean ± S.D.", "setting": "[2]", "value": "1426.9 ± 199.5", "unit": "IU"}, {"measurement": "AST, mean ± S.D.", "setting": "[2]", "value": "956.8 ± 219.5", "unit": "IU"}, {"measurement": "ALT, mean ± S.D.", "setting": "[3]", "value": "1826.5 ± 479.5", "unit": "IU"}, {"measurement": "AST, mean ± S.D.", "setting": "[3]", "value": "1623.7 ± 432.8", "unit": "IU"}, {"measurement": "LDH, mean ± S.D.", "setting": "[3]", "value": "2583.7 ± 634.1", "unit": "IU"}]}
{"molecule": "CC1(C)[C@@H](O[C@H]2O[C@H](C(=O)O)[C@@H](O)[C@H](O)[C@H]2O[C@@H]2O[C@H](C(=O)O)[C@@H](O)[C@H](O)[C@H]2O)CC[C@]2(C)[C@H]3C(=O)C=C4[C@@H]5C[C@@](C)(C(=O)O)CC[C@]5(C)CC[C@@]4(C)[C@]3(C)CC[C@@H]12", "note": "[Glycyrrhizin]", "values": [{"measurement": "ALT, mean ± S.D.", "setting": "[1]", "value": "8339.3 ± 2420.1", "unit": "IU"}, {"measurement": "AST, mean ± S.D.", "setting": "[1]", "value": "8949.6 ± 4530.0", "unit": "IU"}, {"measurement": "LDH, mean ± S.D.", "setting": "[1]", "value": "26457 ± 11086", "unit": "IU"}, {"measurement": "ALT, mean ± S.D.", "setting": "[2]", "value": "1089.7 ± 210.2", "unit": "IU"}, {"measurement": "AST, mean ± S.D.", "setting": "[2]", "value": "267.8 ± 78.1", "unit": "IU"}, {"measurement": "ALT, mean ± S.D.", "setting": "[3]", "value": "1764.8 ± 437.1", "unit": "IU"}, {"measurement": "AST, mean ± S.D.", "setting": "[3]", "value": "1358.4 ± 324.1", "unit": "IU"}, {"measurement": "LDH, mean ± S.D.", "setting": "[3]", "value": "2163.1 ± 562.7", "unit": "IU"}]}
